Several values for one entry are separate records, joined by “and”; a condition that tells them apart may be missing. Identical values can stand only once. Like-named read-outs stand apart in the source and are kept apart here.
What was measured:
L2 cells [1] = conditions: murine lung cell line L2
IL2 receptors = assay: Effect on IL2 receptor activity (method of Freed); assay type: cell-based; conditions: compared with cyclosporine A
Text: (§1) The effect of CM Peak H on IL1, IL2 and IL2 receptor activity was studied using the method as described in Freed, B. M., Transplantation 43:123, 1987.

IL1 = assay: Effect on IL1 (method of Freed); assay type: cell-based; conditions: compared with cyclosporine A
Text: as §1

phospholipase A2 = conditions: at concentrations of 1 mg/ml or greater
[2] = test system: Renal glomerular mesangial cells; conditions: CM effects only at concentrations greater than 1 and 5 μg/ml
LLC-PK1 cells [3] = conditions: renal epithelial cell line LLC-PK1
[4] = test system: Renal glomerular mesangial cells; conditions: CM effects only at concentrations greater than 1 and 5 μg/ml; remark: listed apart in the source
[5] = for Amount of cyclosporine per liter of bile as determined with internal standard: 100 ml bile extracted, analytical gradient HPLC with CsA internal standard; for Mean % of total concentration of cyclosporine (mean value, n = 5): bile of five CsA treated liver transplant individuals
IL2 = assay: Effect on IL2 (method of Freed); assay type: cell-based; conditions: compared with cyclosporine A
Text: as §1

LLC-PK1 cells [6] = conditions: renal epithelial cell line LLC-PK1; CsA: to 1 ng/ml
[7] = CM extracted from bile of liver transplant recipients, relative area by UV spectroscopy
L2 cells [8] = conditions: murine lung cell line L2; remark: listed apart in the source
L2 cells [9] = conditions: murine lung cell line L2; remark: listed apart in the source
[10] = test system: Renal glomerular mesangial cells; conditions: CsA: to 1 ng/ml, CM effects only at concentrations greater than 1 and 5 μg/ml
LLC-PK1 cells [11] = conditions: renal epithelial cell line LLC-PK1; 19 h + 5 h incubation
lymphocyte proliferation = conditions: Freed 1987; OL-17 followed by OL-1 and OL-21; cited from earlier work
IL2 production = conditions: Freed 1987; OL-17 followed by OL-1 and OL-21; cited from earlier work
rat = conditions: Ryffel 1988; cited from earlier work

| Compound | Inhibition of DNA synthesis (L2 cells [1]) | Inhibition of RNA synthesis [2] | Inhibition of RNA synthesis (LLC-PK1 cells [3]) | Inhibition of DNA synthesis [4] | Amount of cyclosporine per liter of bile as determined with internal standard [5] [µg/L] | Inhibition of protein synthesis (LLC-PK1 cells [6]) | Inhibition of RNA synthesis (L2 cells [8]) | Inhibition of protein synthesis (L2 cells [9]) | Inhibition of protein synthesis [10] | Inhibition of DNA synthesis (LLC-PK1 cells [11]) | Ability to inhibit lymphocyte proliferation in a mixed lymphocyte reaction, compared to CsA (lymphocyte proliferation) | Ability to inhibit IL2 production, compared to CsA (IL2 production) | Mean % of total concentration of cyclosporine (mean value, n = 5) [5] | also measured |
| --- | --- | --- | --- | --- | --- | --- | --- | --- | --- | --- | --- | --- | --- | --- |
| C/C=C/C[C@@H](C)[C@@H](O)[C@H]1C(=O)N[C@@H](CC)C(=O)N(C)CC(=O)N(C)[C@@H](CC(C)C)C(=O)N[C@@H](C(C)C)C(=O)N(C)[C@@H](CC(C)C)C(=O)N[C@@H](C)C(=O)N[C@H](C)C(=O)N(C)[C@@H](CC(C)(C)O)C(=O)N[C@@H](CC(C)C)C(=O)N(C)[C@@H](C(C)C)C(=O)N1C [CM Peak H] | no inhibitory effects | some inhibitory effects | no inhibitory effects | some inhibitory effects | 536 | no inhibitory effects | no inhibitory effects | no inhibitory effects | some inhibitory effects | no inhibitory effects |  |  |  | Inhibiting formation of, and action of IL2 receptors (IL2 receptors): as effective as cyclosporine A; Inhibiting formation of, and action of IL1 (IL1): as effective as cyclosporine A; Inhibition of phospholipase A2 activity (phospholipase A2): no such inhibitory activity; Inhibition of RNA synthesis ([2]; listed as Metabolite H): least inhibitory effects; Inhibition of DNA synthesis ([4]; listed as Metabolite H): least inhibitory effects; Amount in RIA profile of bile ([5]; bile, gradient HPLC/polyclonal antibody RIA): above 250 μg/L CsA equivalents; Inhibiting formation of, and action of IL2 (IL2): as effective as cyclosporine A; Percentage of total CM ([7]; listed as H): 6.3%; Percentage of total CM ([7]; listed as peak H): 6.33%; Inhibition of protein synthesis ([10]; listed as Metabolite H): least inhibitory effects |
| C/C=C/C[C@@H](C)[C@@H](O)[C@H]1C(=O)N[C@@H](CC)C(=O)N(C)CC(=O)N(C)[C@@H](CC(C)C)C(=O)N[C@@H](C(C)C)C(=O)N(C)[C@@H](CC(C)C)C(=O)N[C@@H](C)C(=O)N[C@H](C)C(=O)N(C)[C@@H](CC(C)(C)O)C(=O)N(C)[C@@H](CC(C)C)C(=O)N(C)[C@@H](C(C)C)C(=O)N1C [OL-1, 9-hydroxy cyclosporine A] | no inhibitory effects | some inhibitory effects | no inhibitory effects | some inhibitory effects | 364 | no inhibitory effects | no inhibitory effects | no inhibitory effects | some inhibitory effects | no inhibitory effects | comparable effects | comparable effects |  |  |
| CC[C@@H]1NC(=O)[C@H]([C@H](O)[C@H](C)C/C=C/CO)N(C)C(=O)[C@H](C(C)C)N(C)C(=O)[C@H](CC(C)C)N(C)C(=O)[C@H](CC(C)(C)O)N(C)C(=O)[C@@H](C)NC(=O)[C@H](C)NC(=O)[C@H](CC(C)C)N(C)C(=O)[C@H](C(C)C)NC(=O)[C@H](CC(C)C)N(C)C(=O)CN(C)C1=O [OL-8, 1,9 dihydroxy cyclosporine A] | no inhibitory effects | some inhibitory effects | no inhibitory effects | some inhibitory effects | 640 | no inhibitory effects | no inhibitory effects | no inhibitory effects | some inhibitory effects | no inhibitory effects |  |  | 10.86 ± 2.4% and 11% |  |
| CC[C@@H]1NC(=O)[C@H]([C@H](O)[C@H](C)C/C=C/CO)N(C)C(=O)[C@H](C(C)C)N(C)C(=O)[C@H](CC(C)C)N(C)C(=O)[C@H](CC(C)C)N(C)C(=O)[C@@H](C)NC(=O)[C@H](C)NC(=O)[C@H](CC(C)C)N(C)C(=O)[C@H](C(C)C)NC(=O)[C@H](CC(C)C)N(C)C(=O)CN(C)C1=O [OL-17, 1-hydroxy cyclosporine A] | no inhibitory effects | some inhibitory effects | no inhibitory effects | some inhibitory effects | 853 | no inhibitory effects | no inhibitory effects | no inhibitory effects | some inhibitory effects | no inhibitory effects | comparable effects | comparable effects | 16.00 ± 4.4% and 16% | Toxicity in vivo (rat): not toxic |

— patent US5202310A, “Cyclosporine metabolites” (priority 1990, dated 1993)
